Columns and labels:
Format in all cases: cell-based
[1] = test system: Escherichia coli IFO 12734; experiment: Inhibition of growth of Escherichia coli in liquid culture (absorbance at 600 nm); conditions: for Absorbance at 600 nm: 37° C., 2 hours
Method: Table 5: Inhibition of growth of Escherichia coli IFO 12734 in the copresence of F2 (obtained in Example 1) and cephalexin or cefmenoxime.
(§1) To 8 ml of YAB medium (1.75% Difco antibiotic medium No. 3, 0.5% Difco yeast extract) containing 12% (w/v) of sucrose, there were added 1 ml of water, 50 μg/ml cephalexin solution or 10 μg/ml cefmenoxime solution, and the medium was inoculated with 1 ml of a preculture in YAB medium at an early logarithmic growth phase and incubated with shaking at 37° C. for 2 hours. Thereafter, the absorbance of the culture broth was measured at 600 nm using a Shimadzu-Bausch & Lomb Spectronic 20 colorimeter.

[2] = test system: Escherichia coli IFO 12734; experiment: as above; conditions: 37° C., 2 hours
[3] = test system: Escherichia coli; experiment: Observation of the culture broths under a phase contrast microscope; conditions: in the presence of cephalexin or cefmenoxime
Method: as §1

[4] = test system: Escherichia coli IFO 12734; experiment: Antibiotic-potentiating activity, paper disc growth inhibition zone, Escherichia coli IFO 12734
Method: The potency of the compound of the formula (II) can be determined, for instance, by the cup method or paper disc method using bouillon agar containing 0.05 μg/ml of cefmenoxime with Escherichia coli IFO 12734 as the test organism. […]
(§2) *The test was performed using a bouillon agar medium containing the
antibiotic as specified and a paper disc, 8 mm in diameter.
**A paper disc, 8 mm in diameter, was impregnated with 25 μl of the […]

[5] = test system: Proteus mirabilis ATCC 21100; experiment: Antibiotic-potentiating activity, paper disc growth inhibition zone, Proteus mirabilis ATCC 21100
Method: as §2
antibiotic as specified and a paper disc, 8 mm in diameter. […]
*The test was performed under the same conditions as noted for Table 1
except for the test organism and the concentration of each coexisting

[6] = F2 of Example 1, 1 μg/ml in test solution, no addition
[7] = F2 of Example 1, 5 μg/ml in test solution, no addition
[8] = F2 of Example 1, 25 μg/ml in test solution, no addition
[9] = F2 of Example 1, 125 μg/ml in test solution, no addition
[10] = F2 of Example 1, 1000 μg/ml in test solution, no addition
[11] = F2 of Example 3, 1 μg/ml in test solution, no addition
[12] = F2 of Example 3, 5 μg/ml in test solution, no addition
[13] = F2 of Example 3, 25 μg/ml in test solution, no addition
[14] = F2 of Example 3, 125 μg/ml in test solution, no addition
[15] = F2 of Example 3, 1000 μg/ml in test solution, no addition

CC(=O)NC1C(OC2CC(C(=O)NCCS(=O)(=O)O)NC2CO)OC(CO)C(OS(=O)(=O)O)C1O (stereo not drawn) [F2]
Absorbance at 600 nm ([1]; final F2 (Example 1) 1 μg/ml, 1 μg/ml cefmenoxime): 0.60 | Absorbance at 600 nm ([1]; final F2 (Example 1) 1 μg/ml, 5 μg/ml cephalexin): 1.80 | Absorbance at 600 nm ([1]; final F2 (Example 1) 1 μg/ml, no addition): 2.65 | Absorbance at 600 nm ([1]; final F2 (Example 1) 10 μg/ml, no addition): 2.65 | Inhibition of growth of Escherichia coli ([1]; in the presence of cephalexin or cefmenoxime, decrease in absorbance): inhibits the growth of Escherichia coli | Absorbance at 600 nm ([2]; final F2 (Example 1) 10 μg/ml, 1 μg/ml cefmenoxime): 0.25 | Absorbance at 600 nm ([2]; final F2 (Example 1) 10 μg/ml, 5 μg/ml cephalexin): 1.00 | Absorbance at 600 nm ([2]; final F2 (Example 1) 100 μg/ml, 1 μg/ml cefmenoxime): 0.30 | Absorbance at 600 nm ([2]; final F2 (Example 1) 100 μg/ml, 5 μg/ml cephalexin): 0.95 | Absorbance at 600 nm ([2]; final F2 (Example 1) 100 μg/ml, no addition): 2.70 | Absorbance at 600 nm ([2]; final F2 (Example 3) 1 μg/ml, 1 μg/ml cefmenoxime): 0.55 | Absorbance at 600 nm ([2]; final F2 (Example 3) 1 μg/ml, 5 μg/ml cephalexin): 1.75 | Absorbance at 600 nm ([2]; final F2 (Example 3) 1 μg/ml, no addition): 2.45 | Absorbance at 600 nm ([2]; final F2 (Example 3) 10 μg/ml, 1 μg/ml cefmenoxime): 0.25 | Absorbance at 600 nm ([2]; final F2 (Example 3) 10 μg/ml, 5 μg/ml cephalexin): 1.90 | Absorbance at 600 nm ([2]; final F2 (Example 3) 10 μg/ml, no addition): 2.50 | Absorbance at 600 nm ([2]; final F2 (Example 3) 100 μg/ml, 1 μg/ml cefmenoxime): 0.25 | Absorbance at 600 nm ([2]; final F2 (Example 3) 100 μg/ml, 5 μg/ml cephalexin): 0.75 | Absorbance at 600 nm ([2]; final F2 (Example 3) 100 μg/ml, no addition): 2.55 | Swelling and bacteriolysis under phase contrast microscope [3]: partial swelling occurred and bacteriolysis proceeded | Elongation of cells under phase contrast microscope ([3]; in dependence on the addition level): elongation was inhibited | Diameter of growth inhibition zone ([4]; F2 of Example 1, 1 μg/ml in test solution, 0.03 μg/ml mecillinam): < 8 mm | Diameter of growth inhibition zone ([4]; F2 of Example 1, 1 μg/ml in test solution, 0.05 μg/ml cefmenoxime): 10 mm | Diameter of growth inhibition zone [4, 6]: < 8 mm | Diameter of growth inhibition zone ([4]; F2 of Example 1, 5 μg/ml in test solution, 0.03 μg/ml mecillinam): 10 mm | Diameter of growth inhibition zone ([4]; F2 of Example 1, 5 μg/ml in test solution, 0.05 μg/ml cefmenoxime): 15 mm | Diameter of growth inhibition zone [4, 7]: < 8 mm | Diameter of growth inhibition zone ([4]; F2 of Example 1, 25 μg/ml in test solution, 0.03 μg/ml mecillinam): 18 mm | Diameter of growth inhibition zone ([4]; F2 of Example 1, 25 μg/ml in test solution, 0.05 μg/ml cefmenoxime): 24 mm | Diameter of growth inhibition zone [4, 8]: < 8 mm | Diameter of growth inhibition zone ([4]; F2 of Example 1, 125 μg/ml in test solution, 0.03 μg/ml mecillinam): 24 mm | Diameter of growth inhibition zone ([4]; F2 of Example 1, 125 μg/ml in test solution, 0.05 μg/ml cefmenoxime): 32 mm | Diameter of growth inhibition zone [4, 9]: < 8 mm | Diameter of growth inhibition zone ([4]; F2 of Example 1, 1000 μg/ml in test solution, 0.03 μg/ml mecillinam): 30 mm | Diameter of growth inhibition zone ([4]; F2 of Example 1, 1000 μg/ml in test solution, 0.05 μg/ml cefmenoxime): 40 mm | Diameter of growth inhibition zone [4, 10]: < 8 mm | Diameter of growth inhibition zone ([4]; F2 of Example 3, 1 μg/ml in test solution, 0.03 μg/ml mecillinam): < 8 mm | Diameter of growth inhibition zone ([4]; F2 of Example 3, 1 μg/ml in test solution, 0.05 μg/ml cefmenoxime): 9 mm | Diameter of growth inhibition zone [4, 11]: < 8 mm | Diameter of growth inhibition zone ([4]; F2 of Example 3, 5 μg/ml in test solution, 0.03 μg/ml mecillinam): 9 mm | Diameter of growth inhibition zone ([4]; F2 of Example 3, 5 μg/ml in test solution, 0.05 μg/ml cefmenoxime): 14 mm | Diameter of growth inhibition zone [4, 12]: < 8 mm | Diameter of growth inhibition zone ([4]; F2 of Example 3, 25 μg/ml in test solution, 0.03 μg/ml mecillinam): 19 mm | Diameter of growth inhibition zone ([4]; F2 of Example 3, 25 μg/ml in test solution, 0.05 μg/ml cefmenoxime): 23 mm | Diameter of growth inhibition zone [4, 13]: < 8 mm | Diameter of growth inhibition zone ([4]; F2 of Example 3, 125 μg/ml in test solution, 0.03 μg/ml mecillinam): 23 mm | Diameter of growth inhibition zone ([4]; F2 of Example 3, 125 μg/ml in test solution, 0.05 μg/ml cefmenoxime): 31 mm | Diameter of growth inhibition zone [4, 14]: < 8 mm | Diameter of growth inhibition zone ([4]; F2 of Example 3, 1000 μg/ml in test solution, 0.03 μg/ml mecillinam): 29 mm | Diameter of growth inhibition zone ([4]; F2 of Example 3, 1000 μg/ml in test solution, 0.05 μg/ml cefmenoxime): 39 mm | Diameter of growth inhibition zone [4, 15]: < 8 mm | Diameter of growth inhibition zone ([5]; F2 of Example 1, 1 μg/ml in test solution, 0.01 μg/ml cefmenoxime): 9 mm | Diameter of growth inhibition zone ([5]; F2 of Example 1, 1 μg/ml in test solution, 0.05 μg/ml mecillinam): 9 mm | Diameter of growth inhibition zone [5, 6]: < 8 mm | Diameter of growth inhibition zone ([5]; F2 of Example 1, 5 μg/ml in test solution, 0.01 μg/ml cefmenoxime): 13 mm | Diameter of growth inhibition zone ([5]; F2 of Example 1, 5 μg/ml in test solution, 0.05 μg/ml mecillinam): 11 mm | Diameter of growth inhibition zone [5, 7]: < 8 mm | Diameter of growth inhibition zone ([5]; F2 of Example 1, 25 μg/ml in test solution, 0.01 μg/ml cefmenoxime): 23 mm | Diameter of growth inhibition zone ([5]; F2 of Example 1, 25 μg/ml in test solution, 0.05 μg/ml mecillinam): 19 mm | Diameter of growth inhibition zone [5, 8]: < 8 mm | Diameter of growth inhibition zone ([5]; F2 of Example 1, 125 μg/ml in test solution, 0.01 μg/ml cefmenoxime): 30 mm | Diameter of growth inhibition zone ([5]; F2 of Example 1, 125 μg/ml in test solution, 0.05 μg/ml mecillinam): 26 mm | Diameter of growth inhibition zone [5, 9]: < 8 mm | Diameter of growth inhibition zone ([5]; F2 of Example 1, 1000 μg/ml in test solution, 0.01 μg/ml cefmenoxime): 38 mm | Diameter of growth inhibition zone ([5]; F2 of Example 1, 1000 μg/ml in test solution, 0.05 μg/ml mecillinam): 32 mm | Diameter of growth inhibition zone [5, 10]: < 8 mm | Diameter of growth inhibition zone ([5]; F2 of Example 3, 1 μg/ml in test solution, 0.01 μg/ml cefmenoxime): 9 mm | Diameter of growth inhibition zone ([5]; F2 of Example 3, 1 μg/ml in test solution, 0.05 μg/ml mecillinam): 9 mm | Diameter of growth inhibition zone [5, 11]: < 8 mm | Diameter of growth inhibition zone ([5]; F2 of Example 3, 5 μg/ml in test solution, 0.01 μg/ml cefmenoxime): 12 mm | Diameter of growth inhibition zone ([5]; F2 of Example 3, 5 μg/ml in test solution, 0.05 μg/ml mecillinam): 12 mm | Diameter of growth inhibition zone [5, 12]: < 8 mm | Diameter of growth inhibition zone ([5]; F2 of Example 3, 25 μg/ml in test solution, 0.01 μg/ml cefmenoxime): 22 mm | Diameter of growth inhibition zone ([5]; F2 of Example 3, 25 μg/ml in test solution, 0.05 μg/ml mecillinam): 19 mm | Diameter of growth inhibition zone [5, 13]: < 8 mm | Diameter of growth inhibition zone ([5]; F2 of Example 3, 125 μg/ml in test solution, 0.01 μg/ml cefmenoxime): 29 mm | Diameter of growth inhibition zone ([5]; F2 of Example 3, 125 μg/ml in test solution, 0.05 μg/ml mecillinam): 25 mm | Diameter of growth inhibition zone [5, 14]: < 8 mm | Diameter of growth inhibition zone ([5]; F2 of Example 3, 1000 μg/ml in test solution, 0.01 μg/ml cefmenoxime): 38 mm | Diameter of growth inhibition zone ([5]; F2 of Example 3, 1000 μg/ml in test solution, 0.05 μg/ml mecillinam): 32 mm | Diameter of growth inhibition zone [5, 15]: < 8 mm
